Earlier results in patent publication US20090214462A1, “COCKCROACH JELLY BAIT” (priority 2004, published 2009).

Tested on: cockroaches
Conditions: kill by intake; general statement

| SMILES | Time until cockroaches die after intake |
| --- | --- |
| CCOP(=S)(OCC)Oc1nc(Cl)c(Cl)cc1Cl [Chlorpyrifos] | 2 to 3 days |
| OB(O)O [Boric acid] | one to eight |
